Test results: ChEMBL document CHEMBL1201862, “PubChem BioAssay data set” (2004)
Calls of active or inactive are those of the source.

Legend:
[1] = HEp-2 cell cytotoxicity, dose response, cytotoxicity control for RSV inhibitor project, HTS (AID 2410); type: functional; conditions: human respiratory syncytial virus
[2] = cells
[3] = system: Streptococcus sp. 'group A'; assay: growth inhibition of control SK(-) GAS strain, dose response, counter-screen for streptokinase expression inhibitor project, luminescence, kanamycin, BacTiterGlo, confirmation (AID 1900); type: functional, organism-based
[4] = biological target: T1, Streptokinase A (Streptococcus pyogenes serotype M1, UniProt P10520); assay: S. pyogenes streptokinase expression inhibitors, potency, dose response, plasminogen activation absorbance, OD405 (AID 1914); type: functional, Streptococcus pyogenes M1 GAS;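 further: secreted streptokinase activity via plasminogen activation per viability signal from cell pellet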
T1 sequence (P10520 whole entry): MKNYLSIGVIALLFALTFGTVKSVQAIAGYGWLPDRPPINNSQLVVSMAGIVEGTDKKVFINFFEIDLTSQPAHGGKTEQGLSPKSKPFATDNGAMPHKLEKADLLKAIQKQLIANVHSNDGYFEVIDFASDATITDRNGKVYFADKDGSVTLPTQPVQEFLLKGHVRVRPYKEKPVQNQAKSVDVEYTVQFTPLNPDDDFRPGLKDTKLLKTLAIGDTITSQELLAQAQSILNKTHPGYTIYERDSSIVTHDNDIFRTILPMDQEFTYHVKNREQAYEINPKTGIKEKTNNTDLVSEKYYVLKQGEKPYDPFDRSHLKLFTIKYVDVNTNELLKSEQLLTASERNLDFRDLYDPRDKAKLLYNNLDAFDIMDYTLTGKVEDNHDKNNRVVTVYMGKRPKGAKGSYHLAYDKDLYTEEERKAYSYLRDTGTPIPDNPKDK

[5] = Luminescence Cell-Based Dose Retest to Confirm Inhibitors of Cancer Stem Cells. [Related pubchem assays (depositor defined):AID2717, AID2721]; type: functional; conditions: Homo sapiens
[6] = Shn3 3'UTR reporter inhibitors, dose response, cell-based, Clone20 osteoblasts, firefly luciferase, cherry-picked (AID 624132); type: functional;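 further: firefly luciferase luminescence from reporter carrying the Shn3 3'UTR in osteoblasts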
[7] = system: Streptococcus; assay: Group A Streptococcus viability loss, dose response, counter-screen for streptokinase expression inhibitor project, luminescence, BacTiterGlo (AID 1915); type: functional, organism-based; conditions: read-out: EC50;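 further: potency for reduction of bacterial viability or growth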
[8] = system: Streptococcus; assay: Luminescence Microorganism-Based Dose Response Follow up to Identify Compounds Cytotoxic to Streptococcus. [Related pubchem assays: 1677 (Project Summary), 1915, 1914, 1902 (Retest at Dose), 1900 (Counter Screen), 1662 (Primary HTS)]; type: functional, organism-based
[9] = control 3'UTR Renilla luciferase suppression, dose response, counter-screen for Shn3 inhibitor project, cell-based, Clone20-Shn3RL, cherry-picked (AID 624133); type: functional
[10] = system: INS1; assay: beta cell apoptosis inhibitors, cytokine rescue, dose response, luminescence, retest (AID 449756); type: functional, cell-based; conditions: Rattus norvegicus;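 further: cell death triggered by IL-1 beta plus TNF-alpha plus IFN-gamma mixture; protective hits raise ATP signal compared with cytokine alone wells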
[11] = biological target: Photoreceptor-specific nuclear receptor (Homo sapiens, UniProt Q9Y5X4); type: functional;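 further: potency for compounds that break the NR2E3 corepressor complex and count as activators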
Photoreceptor-specific nuclear receptor, sequence (Q9Y5X4 whole entry): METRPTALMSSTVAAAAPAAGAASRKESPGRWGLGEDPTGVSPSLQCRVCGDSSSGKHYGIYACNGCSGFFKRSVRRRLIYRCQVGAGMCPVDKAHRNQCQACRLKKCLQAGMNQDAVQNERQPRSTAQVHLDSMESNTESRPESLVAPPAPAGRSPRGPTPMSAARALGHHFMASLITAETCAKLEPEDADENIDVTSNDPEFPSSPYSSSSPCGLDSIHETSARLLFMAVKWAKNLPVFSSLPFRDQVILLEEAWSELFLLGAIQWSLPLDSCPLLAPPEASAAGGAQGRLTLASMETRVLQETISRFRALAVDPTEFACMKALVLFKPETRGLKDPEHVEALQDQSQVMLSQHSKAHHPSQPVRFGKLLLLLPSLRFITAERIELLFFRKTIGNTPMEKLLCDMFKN

[12] = biological target: Peroxisome proliferator-activated receptor gamma/Nuclear receptor corepressor 2 (Homo sapiens, UniProt P37231+Q9Y618); type: functional
Peroxisome proliferator-activated receptor gamma/Nuclear receptor corepressor 2, sequence (P37231 whole entry): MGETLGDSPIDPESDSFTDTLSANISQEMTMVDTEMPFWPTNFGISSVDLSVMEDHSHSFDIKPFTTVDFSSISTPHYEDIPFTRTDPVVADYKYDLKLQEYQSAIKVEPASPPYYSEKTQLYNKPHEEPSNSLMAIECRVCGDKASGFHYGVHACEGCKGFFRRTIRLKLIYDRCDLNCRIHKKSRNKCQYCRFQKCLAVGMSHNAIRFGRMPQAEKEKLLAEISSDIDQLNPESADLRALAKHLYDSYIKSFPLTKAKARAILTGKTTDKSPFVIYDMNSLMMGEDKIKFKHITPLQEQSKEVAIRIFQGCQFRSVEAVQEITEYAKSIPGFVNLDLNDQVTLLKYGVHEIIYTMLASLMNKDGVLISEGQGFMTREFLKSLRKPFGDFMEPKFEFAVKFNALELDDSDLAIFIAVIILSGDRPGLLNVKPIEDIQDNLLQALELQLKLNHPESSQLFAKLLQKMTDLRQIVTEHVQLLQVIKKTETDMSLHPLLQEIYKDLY
Peroxisome proliferator-activated receptor gamma/Nuclear receptor corepressor 2, sequence (Q9Y618 whole entry): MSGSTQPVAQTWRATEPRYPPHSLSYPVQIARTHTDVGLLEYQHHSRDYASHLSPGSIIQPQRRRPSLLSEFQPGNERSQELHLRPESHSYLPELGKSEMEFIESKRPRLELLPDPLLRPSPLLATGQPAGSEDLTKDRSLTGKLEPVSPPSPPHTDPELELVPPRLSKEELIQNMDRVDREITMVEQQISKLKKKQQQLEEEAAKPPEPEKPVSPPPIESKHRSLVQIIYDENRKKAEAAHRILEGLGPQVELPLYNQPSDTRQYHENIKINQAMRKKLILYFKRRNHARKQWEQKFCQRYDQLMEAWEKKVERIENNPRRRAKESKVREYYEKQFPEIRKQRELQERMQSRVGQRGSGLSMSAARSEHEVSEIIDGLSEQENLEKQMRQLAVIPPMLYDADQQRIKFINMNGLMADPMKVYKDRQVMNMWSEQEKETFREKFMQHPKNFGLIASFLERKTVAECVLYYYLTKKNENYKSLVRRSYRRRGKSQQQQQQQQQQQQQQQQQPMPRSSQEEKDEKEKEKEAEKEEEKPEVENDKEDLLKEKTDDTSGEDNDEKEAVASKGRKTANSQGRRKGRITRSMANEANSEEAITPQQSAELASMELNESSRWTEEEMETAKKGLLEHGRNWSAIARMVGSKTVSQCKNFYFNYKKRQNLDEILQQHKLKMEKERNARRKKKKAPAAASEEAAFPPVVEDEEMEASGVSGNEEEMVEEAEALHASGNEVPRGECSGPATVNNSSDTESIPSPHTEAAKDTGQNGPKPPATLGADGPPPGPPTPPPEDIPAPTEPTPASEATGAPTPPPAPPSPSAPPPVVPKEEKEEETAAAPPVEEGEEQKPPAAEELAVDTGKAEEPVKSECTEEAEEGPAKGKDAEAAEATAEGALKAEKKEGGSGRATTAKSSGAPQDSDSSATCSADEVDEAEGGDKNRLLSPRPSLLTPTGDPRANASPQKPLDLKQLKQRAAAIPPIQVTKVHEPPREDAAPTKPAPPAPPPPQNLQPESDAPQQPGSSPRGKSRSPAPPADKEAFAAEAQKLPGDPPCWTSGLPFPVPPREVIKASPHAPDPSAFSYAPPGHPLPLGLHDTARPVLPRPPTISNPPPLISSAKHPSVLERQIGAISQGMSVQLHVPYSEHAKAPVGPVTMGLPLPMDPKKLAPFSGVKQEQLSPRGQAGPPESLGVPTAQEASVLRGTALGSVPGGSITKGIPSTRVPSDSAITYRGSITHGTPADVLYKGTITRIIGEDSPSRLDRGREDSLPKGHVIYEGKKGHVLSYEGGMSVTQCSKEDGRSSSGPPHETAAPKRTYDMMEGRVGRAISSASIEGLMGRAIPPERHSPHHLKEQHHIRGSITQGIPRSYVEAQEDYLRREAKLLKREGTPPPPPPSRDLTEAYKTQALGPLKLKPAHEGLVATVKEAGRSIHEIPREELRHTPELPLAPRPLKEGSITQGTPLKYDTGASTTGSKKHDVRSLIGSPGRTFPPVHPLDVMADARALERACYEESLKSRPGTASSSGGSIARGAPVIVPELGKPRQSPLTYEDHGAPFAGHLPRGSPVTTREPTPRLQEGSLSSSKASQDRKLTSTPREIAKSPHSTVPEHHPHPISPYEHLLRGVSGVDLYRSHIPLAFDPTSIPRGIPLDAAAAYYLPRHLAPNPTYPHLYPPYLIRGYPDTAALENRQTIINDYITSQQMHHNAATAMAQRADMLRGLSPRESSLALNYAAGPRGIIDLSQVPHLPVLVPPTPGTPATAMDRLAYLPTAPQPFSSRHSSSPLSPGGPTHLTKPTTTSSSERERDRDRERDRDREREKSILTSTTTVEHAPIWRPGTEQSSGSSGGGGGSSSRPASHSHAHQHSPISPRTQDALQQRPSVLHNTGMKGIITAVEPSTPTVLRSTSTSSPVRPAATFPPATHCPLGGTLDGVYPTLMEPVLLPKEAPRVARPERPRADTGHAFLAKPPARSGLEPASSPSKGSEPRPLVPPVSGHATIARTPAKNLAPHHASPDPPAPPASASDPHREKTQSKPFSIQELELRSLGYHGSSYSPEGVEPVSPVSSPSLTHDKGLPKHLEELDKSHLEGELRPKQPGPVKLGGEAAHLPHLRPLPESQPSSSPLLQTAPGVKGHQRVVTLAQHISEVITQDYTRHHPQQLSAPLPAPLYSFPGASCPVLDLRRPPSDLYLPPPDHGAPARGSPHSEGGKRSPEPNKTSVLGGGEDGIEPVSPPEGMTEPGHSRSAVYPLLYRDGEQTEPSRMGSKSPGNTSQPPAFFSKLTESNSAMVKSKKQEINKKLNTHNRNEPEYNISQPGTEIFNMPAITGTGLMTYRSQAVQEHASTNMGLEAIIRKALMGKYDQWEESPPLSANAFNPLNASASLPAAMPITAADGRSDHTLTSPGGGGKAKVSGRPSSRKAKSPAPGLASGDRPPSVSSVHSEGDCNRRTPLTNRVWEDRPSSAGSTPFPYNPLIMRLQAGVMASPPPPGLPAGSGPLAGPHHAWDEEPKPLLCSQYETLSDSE

[13] = biological target: Melanin-concentrating hormone receptor 1 (Homo sapiens, UniProt Q99705); assay: Fluorescence-based counterscreen for antagonists of the G-protein coupled receptor 7 (GPR7): cell-based high throughput dose response assay to identify antagonists of the melanin-concentrating hormone receptor 1 (MCHR1).; type: functional
Melanin-concentrating hormone receptor 1, sequence (Q99705 whole entry): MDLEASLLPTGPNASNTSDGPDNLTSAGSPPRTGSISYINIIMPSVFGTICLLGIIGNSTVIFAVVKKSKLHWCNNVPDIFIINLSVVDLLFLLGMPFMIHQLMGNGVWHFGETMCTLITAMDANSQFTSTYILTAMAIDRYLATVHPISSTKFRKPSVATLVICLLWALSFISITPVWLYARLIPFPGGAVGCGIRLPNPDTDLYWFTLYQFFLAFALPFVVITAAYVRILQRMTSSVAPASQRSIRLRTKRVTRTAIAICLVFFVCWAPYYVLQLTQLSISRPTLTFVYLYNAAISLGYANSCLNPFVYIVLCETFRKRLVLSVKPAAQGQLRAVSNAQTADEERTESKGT

[14] = biological target: T2, Neuropeptides B/W receptor type 1 (Homo sapiens, UniProt P48145); assay: Fluorescence-based dose response cell-based high throughput screening assay to identify antagonists of the G-protein coupled receptor 7 (GPR7). [Related pubchem assays: 1952 (Screening assay (GPR7 antagonists).), 1880 (Summary AID.)]; type: functional
T2 sequence (P48145 whole entry): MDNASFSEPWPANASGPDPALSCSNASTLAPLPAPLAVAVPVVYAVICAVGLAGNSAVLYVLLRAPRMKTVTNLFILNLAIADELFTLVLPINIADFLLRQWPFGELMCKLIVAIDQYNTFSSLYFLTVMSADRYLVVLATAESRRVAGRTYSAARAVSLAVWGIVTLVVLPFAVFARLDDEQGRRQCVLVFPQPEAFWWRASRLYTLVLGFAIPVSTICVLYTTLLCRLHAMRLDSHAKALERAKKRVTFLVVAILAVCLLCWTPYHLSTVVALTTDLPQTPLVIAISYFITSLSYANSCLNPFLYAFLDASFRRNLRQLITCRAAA

COC(=O)C1=C(C)N(Cc2ccco2)C(=O)N[C@H]1c1ccccc1
CC50 [1]: > 50 µM (active)
IC50 [2]: 21.8 µM (active)

COC(=O)c1ccccc1NC(=O)c1nc(S(=O)(=O)Cc2ccccc2)ncc1Cl
EC50 [3]: > 50 µM (not active)
EC50 [4]: 3.08 µM (active)
AC50 [5]: 1.84 µM (active)
AC50 [6]: 0.428 µM (active)
EC50 [7]: > 150 µM (not active)
EC50 [8]: > 56 µM (not active)
AC50 [9]: 8.03 µM (active)
AC50 [10]: 6.88 µM (active)

CCOc1cccc(C2C(C(=O)c3ccc(C)o3)=C(O)C(=O)N2CCCn2ccnc2)c1 (stereo unspecified)
IC50 [11]: > 39.8 µM (not active)
IC50 [12]: 16.8 µM (not active)

O=P(Cc1cc(Br)cc(Br)c1OCCO)(c1ccccc1)c1ccccc1
IC50 [13]: 9.96 µM (active)
IC50 [14]: > 43.8 µM (not active)

CCCCOc1ccc(-c2c(C#N)c(S)nc(C)c2C(=O)Nc2ccccc2)cc1
IC50 [11]: 0.33 µM (active)
IC50 [12]: 0.778 µM (active)
